Source: paper PMC7932537, “Quantitative profiling of protease specificity” (PLoS Computational Biology, 2021)

Key:
MMP-2 [1] = assay: Substrate phage display with NGS: relative probability (RP) of P3-P1' tetramer clusters; type: biochemical, human; settings: MMP2;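 also: ratio of tetramer probability after protease selection to that in naive phage library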
MMP-2 [2] = biological target: T1, MMP-2 (Homo sapiens, UniProt P08253); assay: K(obs) of individual phage substrates (set of 1369); type: biochemical; settings: MMP2
T1 sequence (P08253 110-660): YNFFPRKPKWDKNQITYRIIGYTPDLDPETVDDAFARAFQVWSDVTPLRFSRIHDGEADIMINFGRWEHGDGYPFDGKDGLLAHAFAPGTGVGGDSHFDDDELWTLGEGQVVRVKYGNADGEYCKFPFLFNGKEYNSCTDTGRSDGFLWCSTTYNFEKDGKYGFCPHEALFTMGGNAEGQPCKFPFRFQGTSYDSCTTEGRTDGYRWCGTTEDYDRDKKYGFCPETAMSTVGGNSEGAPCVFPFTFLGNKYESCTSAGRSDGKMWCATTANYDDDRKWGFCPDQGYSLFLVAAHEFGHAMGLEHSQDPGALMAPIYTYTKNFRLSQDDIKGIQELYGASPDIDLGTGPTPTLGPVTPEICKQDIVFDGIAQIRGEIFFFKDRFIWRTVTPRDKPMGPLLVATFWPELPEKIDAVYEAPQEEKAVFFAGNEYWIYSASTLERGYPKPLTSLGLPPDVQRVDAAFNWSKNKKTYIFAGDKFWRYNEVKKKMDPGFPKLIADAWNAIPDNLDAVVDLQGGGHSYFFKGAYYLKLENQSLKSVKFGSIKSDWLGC

MMP-9 = MMP-9 (Homo sapiens, UniProt P14780); assay: as above; type: biochemical; settings: MMP9
[3] = RP of the P3-P1' tetramer contained in the substrate (substrate phage display with NGS)
[4] = individual phage substrates, set of 1369 peptides, cleavage position marked by hyphen in sequence
[5] = individual phage substrates, set of 1369 peptides, hyphen in sequence marks cleavage position
[6] = RP of the P3-P1' tetramer contained in the substrate
[7] = individual phage substrate of the set of 1369 peptides, cleavage position marked by '-'
[8] = individual phage substrate of the set of 1369 peptides, dash in the sequence marks the cleavage position

MMP-9, sequence (P14780 94-707): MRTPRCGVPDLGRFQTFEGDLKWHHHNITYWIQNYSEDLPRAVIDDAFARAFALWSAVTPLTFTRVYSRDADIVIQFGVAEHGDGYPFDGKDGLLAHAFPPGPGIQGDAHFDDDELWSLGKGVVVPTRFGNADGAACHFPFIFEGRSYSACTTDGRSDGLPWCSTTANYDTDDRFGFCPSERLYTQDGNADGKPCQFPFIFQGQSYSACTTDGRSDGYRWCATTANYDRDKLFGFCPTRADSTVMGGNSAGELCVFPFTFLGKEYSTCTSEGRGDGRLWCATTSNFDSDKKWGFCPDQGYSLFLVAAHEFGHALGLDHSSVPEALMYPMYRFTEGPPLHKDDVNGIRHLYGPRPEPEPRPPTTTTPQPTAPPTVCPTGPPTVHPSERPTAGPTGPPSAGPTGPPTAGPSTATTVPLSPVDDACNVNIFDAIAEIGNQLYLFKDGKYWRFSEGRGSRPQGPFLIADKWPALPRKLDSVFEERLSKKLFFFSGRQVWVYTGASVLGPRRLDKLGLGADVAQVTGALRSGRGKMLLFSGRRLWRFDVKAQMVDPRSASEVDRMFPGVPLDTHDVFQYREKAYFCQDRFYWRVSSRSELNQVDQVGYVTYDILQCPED

Row | Substance | Kobs (MMP-2 [2]; [4]) [M⁻¹ s⁻¹] | Kobs (MMP-9; [5]) [M⁻¹ s⁻¹] | Kobs (MMP-2 [2]; [7]) [M⁻¹ s⁻¹] | Kobs (MMP-9; [8]) [M⁻¹ s⁻¹] | relative probability (RP) (MMP-2 [1]; [3]) | relative probability (RP) (MMP-2 [1]; [6])
1 | SGALH-LKATA | 4205.91 | 6688.74 |  |  | 14.6488 | 
2 | RAPSM-LTASG | 5889.62 | 7815.03 |  |  | 33.0235 | 
3 | PMVRW-LTASG | 12792.1 | 12792.1 |  |  | 25.891 | 
4 | GNPYK-LTASG |  |  | 1196.62 | 8941.32 |  | 15.5683
5 | SGVYS-LIKTA | 27.918 | 836.403 |  |  | 16.838 | 
6 | REPLT-LTASG |  |  | 12792.1 | 12792.1 |  | 24.2603
7 | SGGSG-LRILQ |  |  | 0 | 0 |  | 1.9698
8 | DRQLS-LTASG |  |  | 84.609 | 0 |  | 0.4979
9 | ELMLS-MTASG | 2157.02 | 142.481 |  |  | 5.234 | 
10 | GHVRH-LLTAS |  |  | 2545.25 | 386.839 |  | 25.4239
11 | SGHQN-LMATA | 7386.83 | 1561.44 |  |  | 17.7487 | 
12 | GHAYH-LTASG |  |  | 3964.21 | 4763.33 |  | 15.3364
13 | RLANA-LTASG |  |  | 3741.87 | 619.843 |  | 20.3526
14 | SGVWN-LIMTA |  |  | 619.843 | 6688.74 |  | 14.4124
15 | GGPFL-LKTAS | 1513.13 | 8321.48 |  |  | 9.085 | 
16 | GMARF-LSTAS | 2097.28 | 912.511 |  |  | 8.577 | 
17 | GVVRG-LSTAS |  |  | 9740.44 | 4613.14 |  | 29.092
18 | GMPRY-MTASG |  |  | 4335.13 | 12792.1 |  | 28.0367
19 | VSLAY-LTASG | 12792.1 | 113.394 |  |  | 25.3422 | 
20 | PRVML-LTASG | 142.481 | 1112.44 |  |  | 0.4692 | 
21 | SGPRS-LYTTA |  |  | 12792.1 | 12792.1 |  | 33.3704
22 | IPLLN-LTASG | 12792.1 | 1870.4 |  |  | 8.579 | 
23 | GAAHG-IFTAS |  |  | 690.17 | 261.974 |  | 8.881
24 | WDALG-ITASG |  |  | 3850.82 | 2097.28 |  | 18.2164
25 | SGFRN-LRITA | 0 | 201.585 |  |  | 9.821 | 
26 | VRPRP-FTASG |  |  | 12792.1 | 10866.7 |  | 32.5323
27 | TTPYH-ITASG |  |  | 4922.1 | 12792.1 |  | 15.3574
28 | SRAYS-LTASG |  |  | 7815.03 | 8941.32 |  | 18.7071

Further lines, with some results ahead:

Row | Kobs (MMP-2 [2]; [4]) [M⁻¹ s⁻¹] | Kobs (MMP-9; [5]) [M⁻¹ s⁻¹] | Kobs (MMP-2 [2]; [7]) [M⁻¹ s⁻¹] | Kobs (MMP-9; [8]) [M⁻¹ s⁻¹] | Substance | relative probability (RP) (MMP-2 [1]; [3]) | relative probability (RP) (MMP-2 [1]; [6])
29 | 1112.44 | 3741.87 |  |  | QSWYG-MTASG | 0.05309 | 
30 |  |  | 3165.09 | 3964.21 | ARSYN-LTASG |  | 6.093
31 | 1763.55 | 0 |  |  | GEFRS-MRTAS | 5.389 | 
32 | 4470.66 | 0 |  |  | ANYSN-ITASG | 14.6847 | 
33 |  |  | 5461.43 | 1925.41 | GRLRN-LVTAS |  | 27.1336
34 |  |  | 10866.7 | 10866.7 | QSPRM-LTASG |  | 30.5973
35 | 4922.1 | 142.481 |  |  | PVFQS-LTASG | 13.5551 | 
36 | 8941.32 | 0 |  |  | LLFSQ-LTASG | 9.065 | 
37 | 231.616 | 0 |  |  | GSVWH-VRTAS | 0 | 
38 |  |  | 10866.7 | 12792.1 | SGPTA-LRATA |  | 32.8941
39 |  |  | 6131.32 | 12792.1 | SGPVN-LISTA |  | 34.508
40 | 12792.1 | 142.481 |  |  | HAHAS-LTASG | 26.2573 | 
41 |  |  | 6688.74 | 5461.43 | SGPRS-MLNTA |  | 32.6673
42 | 10866.7 | 9740.44 |  |  | RPPSS-LTASG | 35.4913 | 
43 | 12792.1 | 12792.1 |  |  | RGPYH-LTASG | 27.2418 | 
44 |  |  | 12792.1 | 12792.1 | GSPAS-LRTAS |  | 36.4285
45 | 5090.5 | 0 |  |  | LWYGH-LTASG | 11.3746 | 
46 | 10866.7 | 27.918 |  |  | RQLAH-ITASG | 25.9365 | 
47 | 874.197 | 12792.1 |  |  | SGYYG-LRATA | 0.142 | 
48 | 27.918 | 619.843 |  |  | SGSLA-LQSTA | 6.019 | 
49 |  |  | 7015.91 | 5090.5 | EVARA-MTASG |  | 25.2992

Row | Kobs (MMP-2 [2]; [4]) [M⁻¹ s⁻¹] | Kobs (MMP-9; [5]) [M⁻¹ s⁻¹] | Kobs (MMP-2 [2]; [7]) [M⁻¹ s⁻¹] | Kobs (MMP-9; [8]) [M⁻¹ s⁻¹] | Substance | relative probability (RP) (MMP-2 [1]; [3]) | relative probability (RP) (MMP-2 [1]; [6])
50 |  |  | 171.876 | 551.253 | SGPHG-FFQTA |  | 21.975
51 | 12792.1 | 12792.1 |  |  | VPPEA-ITASG | 22.5231 | 
52 | 2615.58 | 323.705 |  |  | GEFAA-LQTAS | 18.8584 | 
53 |  |  | 2344.36 | 231.616 | ERFSH-LTASG |  | 16.5216
54 | 418.952 | 1071.29 |  |  | TNPIM-LTASG | 15.4441 | 
55 |  |  | 12792.1 | 12792.1 | GTPYG-LVTAS |  | 32.9966
56 |  |  | 1763.55 | 1154.21 | SGSHG-LRSTA |  | 0.2009
57 |  |  | 7386.83 | 10866.7 | GLPMH-LTASG |  | 30.095
58 |  |  | 6396.07 | 2615.58 | PRVHH-LTASG |  | 14.1228
59 |  |  | 12792.1 | 4470.66 | SLNRA-LTASG |  | 16.7485
60 |  |  | 3741.87 | 231.616 | VQQQG-LTASG |  | 6.401
61 |  |  | 12792.1 | 12792.1 | WHPVS-LTASG |  | 32.502
62 | 1981.53 | 0 |  |  | LVGNS-LTASG | 0.2884 | 
63 | 12792.1 | 12792.1 |  |  | QRPAQ-LTASG | 32.8467 | 
64 |  |  | 5461.43 | 484.315 | RLANN-LTASG |  | 18.8719
65 | 1816.46 | 2097.28 |  |  | SQPHL-LTASG | 16.4802 | 
66 |  |  | 1513.13 | 2476.66 | GSGRA-MYGTT |  | 2.5449
67 | 27.918 | 0 |  |  | HDYFN-LTASG | 0 | 
68 |  |  | 12792.1 | 12792.1 | RAPAS-LTASG |  | 36.4285
69 | 12792.1 | 0 |  |  | GRLAS-LTASG | 31.1996 | 
